Assay results as given in PMC2997884 (Molecular pharmaceutics, 2010).
Where two headings read alike, the source gives them in different places. Each block holds one compound with its values, some of them ahead of it. Where a SMILES comes first, the peptide text is derived from it. [ ]: non-standard residue; d: D form. The star is where a group is joined. ξ: configuration not given here. pNA = O=[N+]([O-])c1ccc(N*)cc1; ξP = O=C(O)C1CCCN1

How the values were obtained:
chymotrypsin = conditions: N-acetyltryptophanyl-X substrates of chymotrypsin; ref Bender and Kezdy[14]; cited from earlier work
[1] = Hydrolysis in pH 7.4 HEPES buffer; assay type: physicochemical; conditions: for t1/2 (estimated half-life): pH 7.4 HEPES buffer, 37 °C, mean ± SEM, esters n=3, Val-3-APG n=1 (up to 800 h)
hVACVase [2] = target: T1, hVACVase (Homo sapiens, UniProt Q86WA6); experiment: hVACVase-mediated hydrolysis; conditions: 50 mM HEPES pH 7.4, 37°C, 6×His-tagged hVACVase for Val-3-APG; for kcat: calculated from Vmax/[enzyme]0; for Km / Vmax: mean ± SEM, Phe-OMe n=2, others n=3
T1 sequence (Q86WA6 38-291): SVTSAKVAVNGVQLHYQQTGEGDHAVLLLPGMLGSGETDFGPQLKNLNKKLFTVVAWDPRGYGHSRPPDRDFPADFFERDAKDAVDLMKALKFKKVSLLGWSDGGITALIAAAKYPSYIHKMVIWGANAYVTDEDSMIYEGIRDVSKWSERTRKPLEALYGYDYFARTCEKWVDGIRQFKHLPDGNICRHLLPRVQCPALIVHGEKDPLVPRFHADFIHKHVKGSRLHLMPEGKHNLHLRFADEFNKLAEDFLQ

hVACVase [3] = target: T1, hVACVase; conditions: cited from earlier work; for specific activity: hVACVase substrate; for Km / Vmax: hVACVase
hVACVase [4] = target: T1, hVACVase; conditions: hVACVase-mediated hydrolysis; previously published; ref Sun et al.[12]; cited from earlier work

SMILES: CCOC(=O)[C@H](Cc1c[nH]c2ccccc12)NC(C)=O [-OEt]
Km (chymotrypsin): 97 µM
kcat (chymotrypsin): 0.448 s⁻¹

t1/2 (estimated half-life) [1]: 14.3 ± 0.127 h
kcat (hVACVase [2]): 60 ± 3 s⁻¹
Km (hVACVase [2]): 60 ± 15 µM
Vmax (hVACVase [2]): 125 ± 7 nmol/min/µg
SMILES: CC(C)[C@H](N)C(=O)OCc1ccccc1.Cl [Val-OBn, L-valine benzyl ester hydrochloride]

SMILES: COC(=O)[C@H](Cc1c[nH]c2ccccc12)NC(C)=O [-OMe]
Km (chymotrypsin): 95 µM
kcat (chymotrypsin): 0.462 s⁻¹

SMILES: CC(=O)N[C@@H](Cc1c[nH]c2ccccc12)C(N)=O [-NH2]
Km (chymotrypsin): 5000 µM
kcat (chymotrypsin): 0.0006 s⁻¹

t1/2 (estimated half-life) [1]: 16.773 ± 0.433 h
kcat (hVACVase [2]): 93 ± 4 s⁻¹
Km (hVACVase [2]): 6700 ± 560 µM
Vmax (hVACVase [2]): 193 ± 8 nmol/min/µg
SMILES: CCOC(=O)[C@@H](N)Cc1ccccc1.Cl [Phe-OEt, L-phenylalanine ethyl ester hydrochloride]
specific activity (hVACVase [3]): 75.3 units/mg

SMILES: CC(C)[C@H](N)C(=O)Nc1ccc([N+](=O)[O-])cc1 [Val-p-NA]
hydrolytic activity of hVACVase toward amides (hVACVase [3]): does not exhibit significant hydrolytic activity

SMILES: N[C@@H](Cc1ccccc1)C(=O)Nc1ccc([N+](=O)[O-])cc1 [Phe-p-NA]
hydrolytic activity of hVACVase toward amides (hVACVase [3]): does not exhibit significant hydrolytic activity

half-life ([1]; HEPES buffer, pH 7.4): 12.37 ± 0.0917 h
SMILES: CC(C)[C@H](N)C(=O)OCCOCn1cnc2c(=O)[nH]c(N)nc21 [valacyclovir]
Km (hVACVase [4]): 68 ± 4 µM
Vmax (hVACVase [4]): 120 ± 2 nmol/min/µg
kcat (hVACVase [4]): 58 ± 1 s⁻¹
Km (hVACVase [3]): 190 µM

SMILES: NCC(=O)N1CCCC1C(=O)Nc1ccc([N+](=O)[O-])cc1 (stereo not drawn) [Gly-Pro-p-NA] (H-Gly-[ξP]-pNA)
hydrolytic activity of hVACVase toward amides (hVACVase [3]): does not exhibit significant hydrolytic activity

SMILES: CC(C)(C)OC(=O)[C@@H](N)Cc1ccccc1 [phenylalanine t-butyl ester]
hVACVase substrate or not (hVACVase [3]): not a substrate

t1/2 (estimated half-life) [1]: 6.872 ± 0.198 h
kcat (hVACVase [2]): 130 ± 2 s⁻¹
Km (hVACVase [2]): 14 ± 1 µM
Vmax (hVACVase [2]): 272 ± 3 nmol/min/µg
SMILES: Br.CC(C)[C@H](N)C(=O)OCc1ccc([N+](=O)[O-])cc1 [valine p-nitrobenzyl ester, L-Valine p-nitrobenzyl ester hydrobromide]

SMILES: CC(C)C(N)C(=O)OC1CC(n2cc(F)c(=O)[nH]c2=O)OC1CO (stereo not shown) [valine 3’-floxuridine ester]
Vmax (hVACVase [3]): 33 nmol/min/µg

SMILES: CC(=O)N[C@@H](Cc1c[nH]c2ccccc12)C(=O)Oc1ccc([N+](=O)[O-])cc1 [-OPNP]
Km (chymotrypsin): 2 µM
kcat (chymotrypsin): 0.508 s⁻¹

SMILES: O=C(Nc1ccc([N+](=O)[O-])cc1)[C@@H]1CCCN1 [Pro-p-NA]
hydrolytic activity of hVACVase toward amides (hVACVase [3]): does not exhibit significant hydrolytic activity

SMILES: NCCCC[C@H](N)C(=O)Nc1ccc([N+](=O)[O-])cc1 [Lys-p-NA]
hydrolytic activity of hVACVase toward amides (hVACVase [3]): does not exhibit significant hydrolytic activity

SMILES: CC(C)C[C@H](N)C(=O)Nc1ccc([N+](=O)[O-])cc1 [Leu-p-NA]
hydrolytic activity of hVACVase toward amides (hVACVase [3]): does not exhibit significant hydrolytic activity

t1/2 (estimated half-life) [1]: 6.083 ± 0.157 h
kcat (hVACVase [2]): 395 ± 26 s⁻¹
Km (hVACVase [2]): 99 ± 26 µM
Vmax (hVACVase [2]): 822 ± 54 nmol/min/µg
SMILES: Cl.N[C@@H](Cc1ccccc1)C(=O)OCc1ccccc1 [Phe-OBn, L-phenylalanine benzyl ester hydrochloride]
specific activity (hVACVase [3]): 358.3 units/mg

t1/2 (estimated half-life) [1]: 8.115 ± 0.11 h
SMILES: CC(C)C(N)C(=O)OCc1cccc(NC(=N)N)c1 (stereo not shown) [Val-3-HPG]
Km (hVACVase [4]): 46 ± 5 µM
Vmax (hVACVase [4]): 321 ± 9 nmol/min/µg
kcat (hVACVase [4]): 154 ± 4 s⁻¹

t1/2 (estimated half-life) [1]: 3.833 ± 0.108 h
SMILES: N=C(N)Nc1cccc(COC(=O)[C@@H](N)Cc2ccccc2)c1 [Phe-3-HPG]
Km (hVACVase [4]): 207 ± 16 µM
Vmax (hVACVase [4]): 718 ± 16 nmol/min/µg
kcat (hVACVase [4]): 345 ± 8 s⁻¹

SMILES: CC(C)C(N)C(=O)OCC1OC(n2cc(F)c(=O)[nH]c2=O)CC1O (stereo not shown) [valine 5’-floxuridine]
Vmax (hVACVase [3]): 148 nmol/min/µg

SMILES: CC(C)[C@H](N)C(=O)OCC(CO)OCn1cnc2c(=O)nc(N)[nH]c21 (stereo partly shown) [valganciclovir]
Km (hVACVase [3]): 1900 µM
